Measurements: patent US9023789B2, “Amylin analogs and pharmaceutical compositions thereof” (Novo Nordisk A/S, priority 2012, dated 2015)
Numbered stars: 1 amine (or outer) side, 2 acyl side, 3 side chain; on linkers, the order of the positions; unused ones are H or OH. Bridge positions count the residues as written; N and C are the ends. Side chains are listed from the residue outwards. Peptide text beside a SMILES is read from it. * marks the point of attachment. C20 diacid = O=C(O)CCCCCCCCCCCCCCCCCCC(=O)*; γGlu = O=C(O)[C@H](CCC(=O)[*:2])N[*:1]

Key:
Male Wistar rats = assay: ASSAY (XII) effect from single subcutaneous administration on plasma calcium in rats; type: in vivo, rat; conditions: for Plasma calcium red (%) 0-12 h (maximal): single s.c., compared to vehicle; for suppression of plasma calcium level relative to vehicle: monitored over 24 hours
How it was run: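 Male Wistar rats (~250 g), groups of five, received a single subcutaneous dose at time 0. Blood drawn at −15 min, 1, 2, 4, 7, 12 and 24 h; total calcium measured in heparin plasma, reported as mean±SEM.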

[1] = ASSAY (IX) pK, determination of T½ in mini-pig; type: in vivo; conditions: male, Göttingen, minipig, plasma, iv, 2 nmol/kg
Male Sprague-Dawley rats = assay: ASSAY (XI) single subcutaneous administration, food intake monitored for 48 hours in rats; type: in vivo, rat; conditions: for Food intake red (%) 0-24 h / Food intake red (%) 24-48 h: single s.c., compared to vehicle; for food intake monitored over 48 hours: single subcutaneous administration, versus vehicle
How it was run: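 Male Sprague-Dawley rats from Taconic Europe, weighing about 250 g on the test day, were singly housed in an online food intake monitoring system (Ellegaard MBRose, Denmark). Before the study they were acclimatized to a reversed light cycle, with lights on from 10 PM to 10 AM. Each rat then received one subcutaneous dose of the analogue, and data are reported as mean±SEM.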

[2] = single subcutaneous administration, increasing doses (all doses tested)

| SMILES | Plasma calcium red (%) 0-12 h (maximal) (Male Wistar rats; 3 nmol/kg) [%] | Plasma calcium red (%) 0-12 h (maximal) (Male Wistar rats; 30 nmol/kg) [%] | suppression of plasma calcium level relative to vehicle (Male Wistar rats; single subcutaneous 3 nmol/kg) | suppression of plasma calcium level relative to vehicle (Male Wistar rats; single subcutaneous 30 nmol/kg) | suppression of plasma calcium level relative to vehicle (Male Wistar rats; single subcutaneous 100 nmol/kg) | suppression of plasma calcium level relative to vehicle (Male Wistar rats; single subcutaneous 300 nmol/kg) | half-life [1] [h] | Food intake red (%) 0-24 h (Male Sprague-Dawley rats; 3 nmol/kg) [%] | Food intake red (%) 24-48 h (Male Sprague-Dawley rats; 3 nmol/kg) [%] | Food intake red (%) 0-24 h (Male Sprague-Dawley rats; 30 nmol/kg) [%] | Food intake red (%) 24-48 h (Male Sprague-Dawley rats; 30 nmol/kg) [%] | food intake monitored over 48 hours (Male Sprague-Dawley rats; 30 nmol/kg) | suppression of plasma calcium level relative to vehicle (Male Wistar rats; [2]) |
| --- | --- | --- | --- | --- | --- | --- | --- | --- | --- | --- | --- | --- | --- |
| CC[C@H](C)[C@H](NC(=O)[C@H](C)NC(=O)CNC(=O)[C@H](Cc1ccccc1)NC(=O)[C@H](CC(N)=O)NC(=O)[C@@H]1CCCN1C(=O)[C@H](CO)NC(=O)[C@H](CO)NC(=O)[C@H](Cc1c[nH]cn1)NC(=O)[C@H](CCCNC(=N)N)NC(=O)[C@H](CC(C)C)NC(=O)[C@H](Cc1ccccc1)NC(=O)[C@H](CCC(=O)O)NC(=O)[C@H](C)NC(=O)[C@H](CC(C)C)NC(=O)[C@H](CCCNC(=N)N)NC(=O)[C@H](CCC(N)=O)NC(=O)[C@@H](NC(=O)[C@H](C)NC(=O)[C@@H]1CSSC[C@H](NC(=O)[C@@H](N)CCCCNC(=O)CC[C@H](NC(=O)CCCCCCCCCCCCCCCCCCC(=O)O)C(=O)O)C(=O)N[C@@H](CC(N)=O)C(=O)N[C@@H]([C@@H](C)O)C(=O)N[C@@H](C)C(=O)N[C@@H]([C@@H](C)O)C(=O)N1)[C@@H](C)O)C(=O)N1CCC[C@H]1C(=O)N[C@@H](CO)C(=O)N[C@@H](CO)C(=O)N[C@H](C(=O)N[C@@H](CC(N)=O)C(=O)N[C@H](C(=O)NCC(=O)N1CCC[C@H]1C(=O)N[C@@H](CCC(=O)O)C(=O)N[C@H](C(=O)N[C@@H](Cc1ccc(O)cc1)C(N)=O)[C@@H](C)O)C(C)C)[C@@H](C)O [Example 109] (H-K([γGlu-C20 diacid])CNTATCATQRLAEFLRHSSPNFGAIPSSTNVGPETY-NH2; disulfide 2-7 (inferred); N-terminus assumed) | 7 | 27 | does not trigger a notable suppression of the calcium level | induces a minor suppression of the calcium level | induces a more pronounced suppression of the calcium level | induces a more pronounced suppression of the calcium level | 95 | 57 | 50 | 89 | 91 | reduces food intake |  |
| CC[C@H](C)[C@H](NC(=O)[C@H](C)NC(=O)CNC(=O)[C@H](Cc1ccccc1)NC(=O)[C@H](CC(N)=O)NC(=O)[C@@H]1CCCN1C(=O)[C@H](CO)NC(=O)[C@H](CO)NC(=O)[C@H](Cc1c[nH]cn1)NC(=O)[C@H](CCCNC(=N)N)NC(=O)[C@H](CC(C)C)NC(=O)[C@H](Cc1ccccc1)NC(=O)[C@H](CCC(=O)O)NC(=O)[C@H](C)NC(=O)[C@H](CC(C)C)NC(=O)[C@H](CCCNC(=N)N)NC(=O)[C@H](CCC(N)=O)NC(=O)[C@@H](NC(=O)[C@H](C)NC(=O)[C@@H]1CSSC[C@H](NC(=O)[C@@H](N)CCCCNC(=O)CC[C@H](NC(=O)CC[C@H](NC(=O)CCCCCCCCCCCCCCCCCCC(=O)O)C(=O)O)C(=O)O)C(=O)N[C@@H](CC(N)=O)C(=O)N[C@@H]([C@@H](C)O)C(=O)N[C@@H](C)C(=O)N[C@@H]([C@@H](C)O)C(=O)N1)[C@@H](C)O)C(=O)N1CCC[C@H]1C(=O)N[C@@H](CO)C(=O)N[C@@H](CO)C(=O)N[C@H](C(=O)N[C@@H](CC(N)=O)C(=O)N[C@H](C(=O)NCC(=O)N1CCC[C@H]1C(=O)N[C@@H](CCC(=O)O)C(=O)N[C@H](C(=O)N[C@@H](Cc1ccc(O)cc1)C(N)=O)[C@@H](C)O)C(C)C)[C@@H](C)O [Example 106] (H-K([γGlu-γGlu-C20 diacid])CNTATCATQRLAEFLRHSSPNFGAIPSSTNVGPETY-NH2; disulfide 2-7; N-terminus assumed) |  | 6 |  |  |  |  | 49 |  |  | 63 | 69 | reduce food intake |  |
| CC[C@H](C)[C@H](NC(=O)[C@H](C)NC(=O)CNC(=O)[C@H](Cc1ccccc1)NC(=O)[C@H](CC(N)=O)NC(=O)[C@@H]1CCCN1C(=O)[C@H](CO)NC(=O)[C@H](CO)NC(=O)[C@H](Cc1c[nH]cn1)NC(=O)[C@H](CCCNC(=N)N)NC(=O)[C@H](CC(C)C)NC(=O)[C@H](Cc1ccccc1)NC(=O)[C@H](CC(N)=O)NC(=O)[C@H](C)NC(=O)[C@H](CC(C)C)NC(=O)[C@H](CCCNC(=N)N)NC(=O)[C@H](CCC(N)=O)NC(=O)[C@@H](NC(=O)[C@H](C)NC(=O)[C@@H]1CSSC[C@H](NC(=O)[C@@H](N)CCCCNC(=O)CC[C@H](NC(=O)CC[C@H](NC(=O)CCCCCCCCCCCCCCCCCCC(=O)O)C(=O)O)C(=O)O)C(=O)N[C@@H](CC(N)=O)C(=O)N[C@@H]([C@@H](C)O)C(=O)N[C@@H](C)C(=O)N[C@@H]([C@@H](C)O)C(=O)N1)[C@@H](C)O)C(=O)N1CCC[C@H]1C(=O)N[C@@H](CO)C(=O)N[C@@H](CO)C(=O)N[C@H](C(=O)N[C@@H](CC(N)=O)C(=O)N[C@H](C(=O)NCC(=O)N[C@@H](Cc1c[nH]cn1)C(=O)N[C@@H](CC(N)=O)C(=O)N[C@H](C(=O)N[C@@H](Cc1ccc(O)cc1)C(N)=O)[C@@H](C)O)C(C)C)[C@@H](C)O [Example 86] (H-K([γGlu-γGlu-C20 diacid])CNTATCATQRLANFLRHSSPNFGAIPSSTNVGHNTY-NH2; disulfide 2-7) |  | 0 |  |  |  |  | 104 |  |  | 48 | 26 | reduces food intake | None of the doses trigger a notable suppression of the calcium level |
| CC[C@H](C)[C@H](NC(=O)[C@H](C)NC(=O)CNC(=O)[C@H](Cc1ccccc1)NC(=O)[C@H](CC(N)=O)NC(=O)[C@@H]1CCCN1C(=O)[C@H](CO)NC(=O)[C@H](CO)NC(=O)[C@H](Cc1c[nH]cn1)NC(=O)[C@H](CCCNC(=N)N)NC(=O)[C@H](CC(C)C)NC(=O)[C@H](Cc1ccccc1)NC(=O)[C@H](CC(=O)O)NC(=O)[C@H](C)NC(=O)[C@H](CC(C)C)NC(=O)[C@H](CCCNC(=N)N)NC(=O)[C@H](CCC(N)=O)NC(=O)[C@@H](NC(=O)[C@H](C)NC(=O)[C@@H]1CSSC[C@H](NC(=O)[C@@H](N)CCCCNC(=O)CC[C@H](NC(=O)CC[C@H](NC(=O)CCCCCCCCCCCCCCCCCCC(=O)O)C(=O)O)C(=O)O)C(=O)N[C@@H](CC(N)=O)C(=O)N[C@@H]([C@@H](C)O)C(=O)N[C@@H](C)C(=O)N[C@@H]([C@@H](C)O)C(=O)N1)[C@@H](C)O)C(=O)N1CCC[C@H]1C(=O)N[C@@H](CO)C(=O)N[C@@H](CO)C(=O)N[C@H](C(=O)N[C@@H](CC(N)=O)C(=O)N[C@H](C(=O)NCC(=O)N[C@@H](CO)C(=O)N[C@@H](CCCNC(=N)N)C(=O)N[C@H](C(=O)N[C@@H](Cc1ccc(O)cc1)C(N)=O)[C@@H](C)O)C(C)C)[C@@H](C)O [Example 52, N-ε-1-{(S)-4-carboxy-4-[(S)-4-carboxy-4-(19-carboxynonadecanoylamino)butyrylamino]butyryl}-[Asp14,Arg17,Pro21,Pro27,Arg35]-human amylin] |  | 12 |  |  |  |  | 99.5 | 25 | 15 | 63 | 50 | reduces food intake | None of the doses trigger a notable suppression of the calcium level |
